The subject of series [1] is pSTAT5 in CD3+ T cells. In words: pSTAT5 flow cytometry assay in mouse whole blood. Type of series: in vivo. The procedure:
pSTAT5 Flow Cytometry Assay in Mouse Whole Blood. Whole blood was drawn into EDTA powder coated tubes by cardiac puncture from mice on day 8 of dosing with Compound 118 (2 hours after the 16th dose). 90 μL of whole blood were stimulated with 10 μL of murine IL-2 to achieve a final concentration of 100 ng IL-2/mL (R&D Systems, Minneapolis, Minn., cat #402-ML) for 20 minutes at 37° C., 5% CO2. After stimulation, 1.8 mL of prewarmed BD Phosflow Lyse/Fix Buffer (BD Biosciences, San Jose, Calif.) was added for 20 minutes at 37° C. Cells were washed twice in FACS buffer (Dulbecco's PBS with 0.2% BSA) and incubated for 30 minutes on ice in cold Perm Buffer III (BD Biosciences, San Jose, Calif.). Cells were washed with FACS buffer and resuspended in 50 μL of FACS buffer with antibodies and stained for 3 hours at room temperature with gentle shaking. […] After staining, cells were washed twice with FACS buffer, and the samples were acquired on a BD LSRFortessa™ X20 flow cytometers (BD Biosciences, San Jose, Calif.) and analyzed with FLowJo V10 software (FlowJo, Ashland, Oreg.). The mean fluorescence intensity (MFI) of pSTAT5 as a measure of the amount of phosphorylated STAT5 in the CD3+ T cell population from vehicle or Compound 118 treated animals was reported.

Series [2] deals with IP10. In words: Cytokine measurement in mouse plasma. In kind it is in vivo. On the procedure: Cytokine Measurement in Mouse Plasma. Whole blood was drawn into EDTA powder coated tubes by cardiac puncture from mice on day 8 of dosing with Compound 118 (2 hours after the 16th dose) and plasma was prepared by centrifugation. Cytokines in plasma were measured using the Th1/Th2 Cytokine & Chemokine 20-Plex Mouse ProcartaPlex™ Panel 1 (Invitrogen, Carlsbad, Calif.). IP10 levels (pg/mL) in vehicle or Compound 118 treated animals were reported.

The test system of series [3] is MC-38 murine colon adenocarcinoma. In words: In vivo efficacy in MC38 mouse tumor model. The procedure: Example 232. In Vivo Efficacy of PTPN2 Inhibitors in MC38 Mouse Tumor Model and Impact on Pharmacodynamic Markers
All experiments were conducted in compliance with AbbVie's Institutional Animal Care and Use Committee and the National Institutes of Health Guide for Care and Use of Laboratory Animals guidelines in a facility accredited by the Association for the Assessment and Accreditation of Laboratory Animal Care. C57Bl/6 female mice were obtained from Charles River (Wilmington, Mass.). The mice were group-housed 10 per cage. Food and water were available ad libitum. Animals were acclimated to the animal facilities for a period of at least one week prior to commencement of experiments. Animals were tested in the light phase of a 12-hour light: 12-hour dark schedule (lights on 0600 hours).
Tumor Cell Inoculation and Treatments.
Cells were grown to passage 3 in vitro. A total of 1×10^5 viable MC-38 cells were inoculated subcutaneously into the right flank of female C57Bl/6 mice (7-12 weeks old) on Day 0. The injection volume was 0.1 mL and was composed of a 1:1 mixture of S-MEM and Matrigel® (Corning, N.Y., USA). […] The mean tumor volume (TV) at size match was approximately 196±64 mm^3. Following size match, treatments were initiated on the same day. Dosing of mice was conducted orally, twice a day (BID) at 7 a.m. and 5 p.m. for 21 days. Mice were dosed (10 mg/kg/dose) with either Compound 118 or vehicle controls (n=15 mice/group). Compound 118 was formulated in 10% ethanol, 30% PEG-400 and 60% Phosal-50PG and was dosed at 10 mL/kg. Tumor volume was calculated three times weekly. Measurements of the length (L) and width (W) of the tumor were taken via electronic caliper and the volume was calculated according to the following equation: V=L×W^2/2 using Study Director Version 3.1.399.22 (Studylog Systems, Inc, CA, USA). Mice were euthanized when tumor volume was […] or skin ulcerations occurred. Tumor growth inhibition (TGI) was calculated as TGI=1−(Mean TVTimepoint(Treatment)/Mean TVTimepoint (Vehicle)) for each timepoint that tumor volumes were measured. Reported TGIMax is the largest TGI value for any timepoint that tumors volumes were collected for that treatment group.

Series [4] relates to Granzyme B+ cells within the CD8+ T cell population. Description: Granzyme B staining of CD8 T cells flow cytometry assay in mouse spleen. In kind it is in vivo. The procedure: Granzyme B Staining of CD8 T Cells Flow Cytometry Assay in Mouse Spleen. Mice were sacrificed on day 8 of dosing with Compound 118 (2 hours after the 16th dose) and spleens were excised. Spleens were dissociated with a gentleMACS dissociator (Miltenyi Biotec, Bergisch Gladbach, Germany), red blood cells lysed, and single cell suspensions were prepared. Splenocytes were stained with Zombie UV™ Fixable Viability kit (Biolegend, San Diego, Calif.) diluted in Dulbecco's PBS for 10 minutes at room temperature to exclude dead cells followed by staining for surface markers for 45 minutes on ice using the following flow cytometry antibodies diluted in autoMACS Running Buffer (Miltenyi Biotec, Bergisch Gladbach, Germany): Brilliant Violet 510-labeled anti-CD45, Brilliant Ultraviolet 395-labeled anti-CD3, Brilliant Violet 786-labeled anti-CD4, APC/Cy7-labeled anti-CD8. […] After staining, cells were washed twice with autoMACS Running Buffer, and the samples were acquired on a BD LSRFortessa™ X20 flow cytometers (BD Biosciences, San Jose, Calif.) and analyzed with FLowJo V10 software (FlowJo, Ashland, Oreg.). […]
Background: In flow cytometry, cells or beads pass a laser one at a time.

The mark [5] stands for this setting: 10 mg/kg/dose oral BID, day 8 of dosing (2 hours post 16th dose), value ± SEM.
Where [6] appears, read: 10 mg/kg/dose oral BID for 21 days.

These results are taken from patent publication US10851073B2, “Protein tyrosine phosphatase inhibitors and methods of use thereof” (Calico Life Sciences LLC, priority 2019, dated 2020).

`CC(C)CCN[C@@H]1CCc2cc(O)c(N3CC(=O)NS3(=O)=O)c(F)c2C1` (single isomer, unassigned) [Compound 118]: the “pSTAT5 level [MFI] in CD3+ T cells from IL2 stimulated whole blood” value in series [1] (setting [5]) amounted to 1261±97 MFI. For the same compound, the “pSTAT5 levels in whole blood T cells, fold higher than vehicle” value in series [1] (day 8 of dosing, ex vivo IL2 stimulation) is listed as 1.6 fold. Further, in series [2] (setting [5]), the “IP10 in plasma” value worked out at 256 ± 30 pg/mL. Further, the “IP10 levels in plasma, fold higher than vehicle” value in series [2] (day 8 of dosing) is 1.7 fold. For the same compound, in series [3] (setting [6]), the “mice that achieved complete cures” value is given as 70% and the tolerability entry was “well tolerated, without obvious adverse health events”. The “Tumor Growth Inhibition (Max) compared to vehicle [%]” value in series [3] (10 mg/kg/dose oral BID for 21 days, C57Bl/6 mice) amounted to 94%. Moreover, the tumor response observed entry in series [3] (within 7-10 days of treatment) is “apparent tumor stasis and shrinkage”. In addition, the “% GzB+ cells within splenic CD8+ T cells” value in series [4] (setting [5]) is recorded as 4.3±0.9%. The “frequency of granzyme B producing cells within CD8+ T population in spleen, fold higher than vehicle” value in series [4] (day 8 of dosing) is on record as 3.9 fold.
